Results published in the supplement of paper PMC11424490.

Experiments:
[1] = test system: NCI-H2122; assay: relative IC50 of cell viability (CellTiter-Glo); higher = less potent
Summary of the method: (§1)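 In 384-well plates, NCI-H2122 cells were seeded at 800 cells/well and SW837 and NCI-H358 cells at 500 cells/well, all in 60 µl. Single compounds were added by acoustic dispensing in dose series 24 h later, with incubation for 72 h for NCI-H2122 and NCI-H358 and 144 h for SW837. CellTiter-Glo luminescence was read on an EnVision reader after 15 min shaking and expressed as percent of DMSO controls. A four-parameter nonlinear fit gave the relative IC50, averaged over replicates, and the lower plateau.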

[2] = test system: NCI-H358; assay: as above
Summary of the method: as §1

[3] = test system: SW837; assay: as above
Summary of the method: as §1

[4] = test system: NCI-H2122; assay: fitted bottom plateau of viability curve, % of DMSO control; higher = less maximal inhibition; extreme values may be limits of the assay
Summary of the method: as §1

[5] = test system: NCI-H358; assay: as above
Summary of the method: as §1

[6] = test system: SW837; assay: as above
Summary of the method: as §1

| SMILES | relative IC50 of cell viability [1] | relative IC50 of cell viability [2] | relative IC50 of cell viability [3] | fitted bottom plateau of viability curve [4] | fitted bottom plateau of viability curve [5] | fitted bottom plateau of viability curve [6] |
| --- | --- | --- | --- | --- | --- | --- |
| COc1cccc2c1C(=O)c1c(O)c3c(c(O)c1C2=O)C[C@@](O)(C(C)=O)C[C@@H]3O[C@H]1C[C@H](N)[C@H](O)[C@H](C)O1 [Daunorubicin] (top concentration tested 1000 nM) | 0.12 µM | 0.0276 µM | 0.111 µM | 17.2% | 1.56% | 0.5% |
| CCNC(=O)C[C@@H]1N=C(c2ccc(Cl)cc2)c2cc(OC)ccc2-n2c(C)nnc21 [iBET-762] (top concentration tested 10000 nM) |  | 1.43 µM | 0.839 µM | 59.6% | 53% | 37.6% |
| CCc1nc(N)nc(N)c1-c1ccc(Cl)cc1 [Pyrimethamine] (top concentration tested 50000 nM) | 3.43 µM | 8.34 µM | 8.07 µM | 28.9% | 45.5% | 39% |
| Cc1cc(C)c(CNC(=O)c2cc(-c3ccc(N4CCNCC4)nc3)cc3c2c(C)cn3C2CCCC2)c(=O)[nH]1 (top concentration tested 50000 nM) | 17.4 µM | 11.5 µM | 10.5 µM | 24.3% | 0.467% | 0.31% |
| CCc1c2c(nc3ccc(O)cc13)-c1cc3c(c(=O)n1C2)COC(=O)[C@]3(O)CC [SN-38] (top concentration tested 99.894 nM) | 0.00615 µM | 0.00648 µM | 0.0104 µM | 30.2% | 7.46% | 2.39% |
| O=C(O)CNC(=O)c1c(O)c2ccccc2n(Cc2ccccc2)c1=O [IOX2] (top concentration tested 50000 nM) | 51.4 µM | 10.8 µM |  | 52.8% | 2.49% | 52.6% |
| C[C@@H]1CN(CC(=O)Nc2ccc3c(c2)Cc2cccc(-c4cc(=O)cc(N5CCOCC5)o4)c2S3)C[C@H](C)O1 (top concentration tested 50000 nM) | 11.8 µM | 9.01 µM | 39.2 µM | 31% | 8.33% | 0% |
| C=C(F)C(=O)N1CCN(c2nc(OC[C@@H]3CCCN3C)nc3c2CCN(c2cccc4cccc(Cl)c24)C3)C[C@@H]1CC#N [MRTX849 / Adagrasib] (top concentration tested 999.97 nM) | 0.0397 µM | 0.0252 µM | 0.304 µM | 7.33% | 1.24% | 0.0244% |
| Cc1nc(NC(=O)N2CCC[C@H]2C(N)=O)sc1-c1ccnc(C(C)(C)C(F)(F)F)c1 [BYL-719] (top concentration tested 10000 nM) | 2.53 µM | 2.61 µM |  | 17.8% | 10.9% | 77.5% |
| O=C1c2c(O)ccc(O)c2C(=O)c2c(NCCNCCO)ccc(NCCNCCO)c21 [Mitoxantrone] (top concentration tested 999.98 nM) | 0.0624 µM | 0.0199 µM | 0.0792 µM | 28.7% | 7.11% | 0% |
| Nc1cc(C(F)(F)F)c(-c2cc(N3CCOCC3)nc(N3CCOCC3)n2)cn1 [BKM120] (top concentration tested 10000 nM) | 0.921 µM | 1.31 µM | 1.79 µM | 3.49% | 7.46% | 20.6% |
| O=C(/C=C/c1cccc(S(=O)(=O)Nc2ccccc2)c1)NO [Belinostat] (top concentration tested 10000 nM) | 0.274 µM | 0.491 µM | 1.05 µM | 1.64% | 0.339% | 0.0148% |
| Cc1c(N)nc([C@H](CC(N)=O)NC[C@H](N)C(N)=O)nc1C(=O)N[C@H](C(=O)N[C@H](C)[C@@H](O)[C@H](C)C(=O)N[C@H](C(=O)NCCc1nc(-c2nc(C(=O)NCCC[S+](C)C)cs2)cs1)[C@@H](C)O)[C@@H](OC1OC(CO)C(O)C(O)C1OC1OC(CO)C(O)C(OC(N)=O)C1O)c1cnc[nH]1 (stereo partly drawn) [Bleomycin] (top concentration tested 10000 nM) | 1.2 µM | 1.38 µM | 0.438 µM | 45.4% | 12.7% | 4.05% |
| CCS(=O)(=O)Nc1ccc2c(c1)/C(=C(/Nc1ccc(CN3CCCCC3)cc1)c1ccccc1)C(=O)N2 [Hesperadin] (top concentration tested 10000 nM) | 0.019 µM | 0.0437 µM | 0.366 µM | 5.85% | 0% | 0% |
| Cc1c(-c2c(-c3ccc(F)o3)sc3ncnc(O[C@H](Cc4ccccc4OCc4ccnn4CC(F)(F)F)C(=O)O)c23)ccc(OCCN2CCN(C)CC2)c1Cl (top concentration tested 10000 nM) | 3.79 µM | 3.59 µM |  | 34.5% | 0% | 101% |
| CC(C)n1nc(-c2ccc3oc(N)nc3c2)c2c(N)ncnc21 [MLN-0128] (top concentration tested 99.893 nM) | 0.0259 µM | 0.0272 µM |  | 22.6% | 17.7% | 85.3% |
| CC1(C)CCC(c2ccc(Cl)cc2)=C(CN2CCN(c3ccc(C(=O)NS(=O)(=O)c4ccc(N[C@H](CCN5CCOCC5)CSc5ccccc5)c(S(=O)(=O)C(F)(F)F)c4)cc3)CC2)C1 [ABT-263] (top concentration tested 10000 nM) | 6.24 µM | 6.29 µM |  | 50% | 0% | 46% |
| COC(=O)[C@]12CCC(C)(C)C[C@H]1[C@H]1C(=O)C=C3[C@@]4(C)C=C(C#N)C(=O)C(C)(C)[C@@H]4CC[C@@]3(C)[C@]1(C)CC2 [Bardoxolone methyl] (top concentration tested 1000 nM) | 0.319 µM | 0.113 µM | 0.2 µM | 38.7% | 0.645% | 0% |

The next lines start with results.

| relative IC50 of cell viability [1] | relative IC50 of cell viability [2] | relative IC50 of cell viability [3] | SMILES | fitted bottom plateau of viability curve [4] | fitted bottom plateau of viability curve [5] | fitted bottom plateau of viability curve [6] |
| --- | --- | --- | --- | --- | --- | --- |
| 0.0119 µM | 0.0181 µM | 0.907 µM | Cc1nc(Nc2n[nH]c3c2CN(C(=O)N[C@H](CN(C)C)c2ccccc2)C3(C)C)c2sccc2n1 (top concentration tested 9999.9 nM) | 11.9% | 5.57% | 0% |
| 3.1 µM | 0.883 µM |  | COc1cc2ncnc(Nc3ccc(F)c(Cl)c3)c2cc1OCCCN1CCOCC1 [Gefitinib] (top concentration tested 9999.9 nM) | 37.8% | 19.7% | 77.7% |
| 0.887 µM | 2.29 µM | 1.25 µM | Cc1ccc(C(=O)Nc2ccc(CN3CCN(C)CC3)c(C(F)(F)F)c2)cc1C#Cc1cnc2cccnn12 [Ponatinib] (top concentration tested 10000 nM) | 0.652% | 0.0743% | 0% |
| 0.13 µM | 0.513 µM | 1.57 µM | CNS(=O)(=O)Nc1nccc(Cc2c(C)c3ccc(Oc4ncccn4)cc3oc2=O)c1F (top concentration tested 10000 nM) | 1.94% | 2.19% | 18.8% |
| 0.0436 µM | 0.0323 µM | 0.677 µM | COc1ncc(-c2ccc3nccc(-c4ccnnc4)c3c2)cc1NS(=O)(=O)c1ccc(F)cc1F (top concentration tested 50000 nM) | 2.3% | 0.391% | 3.09% |
| 0.96 µM | 0.297 µM | 5.14 µM | CCN1CCN(Cc2ccc(Nc3ncc(F)c(-c4cc(F)c5nc(C)n(C(C)C)c5c4)n3)nc2)CC1 [Abemaciclib] (top concentration tested 10000 nM) | 35.8% | 0% | 0% |
| 3.83 µM | 1.51 µM | 4.35 µM | COc1cc(Nc2c(C#N)cnc3cc(OCCCN4CCN(C)CC4)c(OC)cc23)c(Cl)cc1Cl [Bosutinib] (top concentration tested 10000 nM) | 23.5% | 25.5% | 12.1% |
| 0.0165 µM | 0.00981 µM | 0.00591 µM | CC(C)C[C@H](NC(=O)[C@H](Cc1ccccc1)NC(=O)c1cnccn1)B(O)O [Bortezomib] (top concentration tested 999.9 nM) | 9.55% | 0.755% | 0.446% |
| 2.16 µM | 1.99 µM |  | NC1(c2ccc(-c3nc4ccn5c(=O)[nH]nc5c4cc3-c3ccccc3)cc2)CCC1 [MK-2206] (top concentration tested 10000 nM) | 31.8% | 33.4% | 79.9% |
| 0.043 µM | 0.0204 µM | 0.0577 µM | C=CC(=O)N1CCN(c2nc(=O)n(-c3c(C)ccnc3C(C)C)c3nc(-c4c(O)cccc4F)c(F)cc23)[C@@H](C)C1 [AMG510 / Sotorasib] (top concentration tested 1000 nM) | 12% | 2.09% | 39.6% |
|  | 1.36 µM | 7.04 µM | Cc1nc(Nc2ncc(C(=O)Nc3c(C)cccc3Cl)s2)cc(N2CCN(CCO)CC2)n1 [Dasatinib] (top concentration tested 10000 nM) | 78.1% | 0% | 0% |
| 2.56 µM | 1.01 µM | 2.21 µM | C=CC(=O)Nc1cc(Nc2nccc(-c3cn(C)c4ccccc34)n2)c(OC)cc1N(C)CCN(C)C [Osimertinib] (top concentration tested 10000 nM) | 0.698% | 0% | 11.4% |
| 1.22 µM | 0.176 µM | 5.66 µM | CN(C)C/C=C/C(=O)Nc1cc2c(Nc3ccc(F)c(Cl)c3)ncnc2cc1O[C@H]1CCOC1 [Afatinib] (top concentration tested 10000 nM) | 2.68% | 0% | 0% |
| 0.29 µM | 0.47 µM |  | Cc1nc(-c2cn3c(n2)-c2ccc(-c4cnn(C(C)(C)C(N)=O)c4)cc2OCC3)n(C(C)C)n1 [Taselisib] (top concentration tested 10000 nM) | 16.9% | 1.64% | 86% |
| 0.384 µM | 0.922 µM |  | COc1cc(N2CCC(N3CCN(C)CC3)CC2)ccc1Nc1ncc(Cl)c(Nc2ccccc2S(=O)(=O)C(C)C)n1 [NVP-TAE684] (top concentration tested 10000 nM) | 0.655% | 3.01% | 56.5% |
| 4.1 µM | 5.73 µM |  | COc1cc(CCc2cc(NC(=O)c3ccc(N4CC(C)NC(C)C4)cc3)n[nH]2)cc(OC)c1 (stereo not drawn) [AZD4547] (top concentration tested 10000 nM) | 68% | 0% | 86.8% |
| 8.75 µM | 2.06 µM | 1.68 µM | COc1cc(Nc2ncc(F)c(Nc3ccc4c(n3)N(COP(=O)(O)O)C(=O)C(C)(C)O4)n2)cc(OC)c1OC [Fostamatinib] (top concentration tested 9999.9 nM) | 37.4% | 0% | 47.6% |
